Measurements as given in patent US20250172543A1, “HIGH DENSITY 3D HEPATOCYTE SPHEROID PLATFORM FOR DRUG ADME STUDIES” (Discovery Life Sciences, LLC, priority 2018, published 2025).
Like-named read-outs stand apart in the source and are kept apart here.

Columns and labels:
[1] = actual in vivo clearance for comparison; cited from earlier work
[2] = tested on: 3D primary human hepatocyte (PHH) high density spheroids; experiment: 3D PHH high density spheroid drug clearance assay; assay type: in vitro ADME; conditions: 0.1 μM substrate, 6-well spheroid insert, in vivo hepatic clearance predicted from in vitro Clint by well stirred model
Description: Plating PHHs onto 6-well high density spheroid insert (−700 microwells/insert): PHH were thawed as standard procedure and resuspended in WEM plating medium. PHH cells were counted and the cell density was adjusted to 0.35e6/ml using WEM plating medium. For plating PHHs, the pipet aid was set at low disperse speed. Right before plating, a 5 mL pipet was used to remove most medium from pre-wetted inserts. Even cell suspensions were prepared by gently pipetting up and down. Using a 5 mL pipet, with the position the tip against the side wall at the bottom, 2 mL of cell suspension (700K cells, -1000 cells/microwell) was added to a 6-well spheroid insert. The plate was allowed to sit for 15-20 min in the hood. The plates were checked under a microscope with a 4x objective, to ensure that that a similar number of cells have settled into each microwell.
Half medium change with WME+medium: The pipet aid was at low disperse speed. Using a 5 mL pipet, 1 mL of old medium was slowly from each insert. A 1000 μL pipet tip was positioned against the top part of the insert sidewall, and 1 mL pre-warmed WME+medium was slowly added with the medium being allowed to flow down the sidewall. After waiting 5-10 minutes between each half medium change, the half medium change was repeated 3 more times. The PHHs were checked under a microscope for spheroid formation.
Incubate the candidate compound(s) to be tested for clearance with the cultured spheroids: The pipet aid was set at low disperse speed. Using a 5 mL pipet, 1 mL of old medium was slowly removed from each insert. […] After 5-10 minutes, the culture was placed back to 37° C. incubator. The timer for incubation was started at this point.
Sampling: 40 μL/well stop solutions Labetalol (0.2 uM IN 0.05% FA/50%ACN) was aliquoted in an assay plate and kept on ice. At the desired assay incubation time (0 hr, 1 hr, 2 hrs, 4 hrs, 6 hrs, 12 hrs, 24 hrs, 36 hrs, 48 hrs, 3 days, 4 days, 5 days, 6 days, 7 days, 8 days, 9 days, 10 days, 11 days, 12 days, 13 days 14 days, 3 weeks, 4 weeks, or any value or range there between), 40 μL sample were drawn from each incubation well, mixed well with stop solution, and stored at −80° C.
LC/MS analysis: The amount of the candidate compound was measured using liquid chromatography/mass spectrometry, as is known in the art.
Calculate the elimination rate constant (ke1): The percentage of the candidate compound remaining in the culture was calculated by dividing the mass spectrometry peak area ratio at certain incubation times to that at time zero, as is known in the art. The natural logarithm of the percentage of the remaining candidate compound was plotted against time, and the kelwas calculated as the absolute value from the slope.
Calculate the depletion half-lives of the candidate compounds: Once the kel was determined for the candidate compound, the depletion half-life of the candidate compound was determined by Equation 1, as is known in the art.
Calculate the;n vitro clearance (Clint) of the candidate compound: The in vitro clearance of the candidate compounds was calculated using the in vitro half-lives from Equation 1 using the scaling factors of Equation 2, as is known in the art.
Calculate predicted in vivo hepatic clearance (CLh): The in vivo hepatic clearance was calculated from the in vitro clearance determined by Equation 2 using the well stirred model Equation 3, as is known in the art.

[3] = tested on: PHHs grown in suspension format; experiment: Clearance measurement with PHHs grown in suspension format; conditions: FIGS. 8A-I
[4] = tested on: PHHs grown in suspension format; conditions: human

Cc1nnc2n1-c1ccc(Cl)cc1C(c1ccccc1)=NC2 [Alprazolam]
In Vivo CLnonrenal [1]: 0.61
Predicted CLh, 3D HD Spheroids [2]: 0.45
Measurability of clearance in suspension hepatocytes [3]: unable to measure

CN1C(=O)CN=C(c2ccccc2)c2cc(Cl)ccc21 [Diazepam]
In Vivo CLnonrenal [1]: 0.53

CCC1=C(C)CN(C(=O)NCCc2ccc(S(=O)(=O)NC(=O)N[C@H]3CC[C@H](C)CC3)cc2)C1=O [Glimepiride]
In Vivo CLnonrenal [1]: 1.12
Predicted CLh, 3D HD Spheroids [2]: 0.04
Measurability of clearance in suspension hepatocytes [4]: unable to measure

C[C@]12C=CC(=O)C=C1CC[C@@H]1[C@@H]2[C@@H](O)C[C@@]2(C)[C@H]1CC[C@]2(O)C(=O)CO [Prednisolone]
In Vivo CLnonrenal [1]: 1.44
Predicted CLh, 3D HD Spheroids [2]: 0.60
Measurability of clearance in suspension hepatocytes [4]: unable to measure

CCCCNC(=O)NS(=O)(=O)c1ccc(C)cc1 [Tolbutamide]
Predicted CLh, 3D HD Spheroids [2]: 0.22
Measurability of clearance in suspension hepatocytes [4]: unable to measure

CC(=O)CC(c1ccccc1)c1c(O)c2ccccc2oc1=O (centres unmarked) [Warfarin]
Predicted CLh, 3D HD Spheroids [2]: 0.01
Measurability of clearance in suspension hepatocytes [4]: unable to measure
